Experiments:
Format in all cases: cell membranes
[1] = molecular target: Sodium-dependent serotonin transporter (Homo sapiens, UniProt P31645); experiment: Radioligand Binding Assay: Compounds were dissolved in 100% DMSO at a concentration 100 times the desired highest assay concentration, serially diluted 1:3 in 100% DMSO, and 0.4 ul/well of each solution was dispensed to a Nunc polypropylene, round bottom, 384-well plate. […] 20 ul/well of a 2x membrane preparation (15 ug/ml in 50 mM Tris-Cl, pH 7.5, 120 mM NaCl, 5 mM KCl) and 20 ul/well of a 2x radioligand solution (520 pM [125I]RTI-55 in 50 mM Tris-Cl, pH 7.5, 120 mM NaCl, 5 mM KCl) were added to each well and the reaction incubated for 1 hour at room temperature. The contents of the assay plate were then transferred to a Millipore MultiscreenHTS GF/B filter plate which was pretreated with 0.5% PEI for at least one hour. The plate was vacuum filtered and washed with 7 washes of 100 uA/well 50 mM Tris-Cl, pH 7.5, 120 mM NaCl, 5 mM KCl chilled to 4 C.
Sequence of Sodium-dependent serotonin transporter (P31645 whole entry): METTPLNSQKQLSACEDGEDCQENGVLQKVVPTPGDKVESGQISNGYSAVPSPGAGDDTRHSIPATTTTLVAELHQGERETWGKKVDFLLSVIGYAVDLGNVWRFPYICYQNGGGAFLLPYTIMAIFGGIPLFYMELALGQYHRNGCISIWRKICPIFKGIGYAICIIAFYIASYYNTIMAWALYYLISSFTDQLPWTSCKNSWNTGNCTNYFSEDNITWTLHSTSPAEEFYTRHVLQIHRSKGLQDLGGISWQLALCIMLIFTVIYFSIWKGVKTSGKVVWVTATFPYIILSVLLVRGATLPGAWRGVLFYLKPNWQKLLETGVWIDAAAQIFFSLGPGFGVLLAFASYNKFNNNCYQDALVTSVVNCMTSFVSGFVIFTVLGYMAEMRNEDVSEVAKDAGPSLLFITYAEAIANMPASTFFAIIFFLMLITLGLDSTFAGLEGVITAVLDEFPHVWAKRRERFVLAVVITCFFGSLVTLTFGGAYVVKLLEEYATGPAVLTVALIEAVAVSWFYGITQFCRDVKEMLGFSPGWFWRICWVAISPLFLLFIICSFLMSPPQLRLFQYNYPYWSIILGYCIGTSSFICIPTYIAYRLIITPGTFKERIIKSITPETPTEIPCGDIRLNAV

[2] = molecular target: Sodium-dependent noradrenaline transporter (Homo sapiens, UniProt P23975); experiment: Radioligand Binding Assay: Compounds were dissolved in 100% DMSO at a concentration 100 times the desired highest assay concentration, serially diluted 1:3 in 100% DMSO, and 1.0 ul/well of each solution was dispensed to a Nunc polypropylene, round bottom, 384-well plate. […] 50 ul/well of a 2x membrane preparation (0.4 mg/ml in 50 mM Tris-Cl, pH 7.5, 120 mM NaCl, 5 mM KCl) and 50 ul/well of a 2x radioligand solution (4 nM [3H]nisoxetine in 50 mM Tris-Cl, pH 7.5, 120 mM NaCl, 5 mM KCl) were added to the well and the reaction incubated for 1 hour at room temperature. The contents of the assay plate were then transferred to a Millipore MultiscreenHTS GF/B filter plate which was pretreated with 0.5% PEI for at least one hour. The plate was vacuum filtered and washed with 7 washes of 100 ul/well 50 mM Tris-Cl, pH 7.5, 120 mM NaCl, 5 mM KCl chilled to 4 C.
Sequence of Sodium-dependent noradrenaline transporter (P23975 whole entry): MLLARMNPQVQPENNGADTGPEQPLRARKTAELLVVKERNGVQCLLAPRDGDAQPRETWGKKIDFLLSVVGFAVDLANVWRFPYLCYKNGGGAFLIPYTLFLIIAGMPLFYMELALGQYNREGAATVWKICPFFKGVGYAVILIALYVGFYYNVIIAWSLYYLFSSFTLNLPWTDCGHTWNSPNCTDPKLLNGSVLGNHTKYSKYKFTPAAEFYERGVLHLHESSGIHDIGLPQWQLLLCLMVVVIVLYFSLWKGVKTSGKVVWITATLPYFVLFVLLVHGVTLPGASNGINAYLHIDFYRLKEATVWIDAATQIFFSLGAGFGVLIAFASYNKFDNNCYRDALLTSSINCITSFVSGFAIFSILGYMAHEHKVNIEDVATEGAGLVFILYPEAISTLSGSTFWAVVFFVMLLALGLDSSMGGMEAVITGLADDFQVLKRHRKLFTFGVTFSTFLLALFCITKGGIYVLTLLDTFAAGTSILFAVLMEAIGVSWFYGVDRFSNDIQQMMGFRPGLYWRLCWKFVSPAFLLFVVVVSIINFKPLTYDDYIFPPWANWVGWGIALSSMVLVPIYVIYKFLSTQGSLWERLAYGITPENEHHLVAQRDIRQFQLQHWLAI

[3] = molecular target: Sodium-dependent dopamine transporter (Homo sapiens, UniProt Q01959); experiment: Radioligand Binding Assay: Compounds were dissolved in 100% DMSO at a concentration 100 times the desired highest assay concentration, serially diluted 1:3 in 100% DMSO, and 0.4 ul/well of each solution was dispensed to a Nunc polypropylene, round bottom, 384-well plate. […] 20 ul/well of a 2x membrane preparation (12.5 ug/ml in 30 mM sodium phosphate buffer, pH 7.9 at 4 C.) and 20 ul/well of a 2x radioligand solution (250 pM [125I]RTI-55 in 30 mM sodium phosphate buffer, pH 7.9 at 4 C.) were added to the well and the reaction incubated for 1 hour at room temperature. The contents of the assay plate were then transferred to a Millipore MultiscreenHTS GF/B filter plate which was pretreated with 0.5% PEI for at least one hour. The plate was vacuum-filtered and washed with 7 washes of 100 ul/well 50 mM Tris-Cl, pH 7.5, 120 mM NaCl, 5 mM KCl chilled to 4 C.
Sequence of Sodium-dependent dopamine transporter (Q01959 whole entry): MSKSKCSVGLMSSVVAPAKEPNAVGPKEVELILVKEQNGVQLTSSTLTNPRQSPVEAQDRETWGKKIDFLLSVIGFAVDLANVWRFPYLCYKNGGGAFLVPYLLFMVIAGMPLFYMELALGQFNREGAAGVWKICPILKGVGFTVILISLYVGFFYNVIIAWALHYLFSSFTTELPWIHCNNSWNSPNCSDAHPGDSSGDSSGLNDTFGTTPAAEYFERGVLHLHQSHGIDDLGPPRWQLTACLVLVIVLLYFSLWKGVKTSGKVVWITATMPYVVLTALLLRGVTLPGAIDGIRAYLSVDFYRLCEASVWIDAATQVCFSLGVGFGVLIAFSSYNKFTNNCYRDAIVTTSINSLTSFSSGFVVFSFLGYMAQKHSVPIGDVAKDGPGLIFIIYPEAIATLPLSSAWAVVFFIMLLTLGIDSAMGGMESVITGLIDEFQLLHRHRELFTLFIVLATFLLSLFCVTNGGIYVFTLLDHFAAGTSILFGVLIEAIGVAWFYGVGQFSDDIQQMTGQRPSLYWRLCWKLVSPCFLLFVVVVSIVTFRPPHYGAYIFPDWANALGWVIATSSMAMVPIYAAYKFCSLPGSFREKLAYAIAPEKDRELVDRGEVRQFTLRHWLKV

## O=c1[nH]c2ccc(-c3ccc4c(c3)CN3CCC4(c4ccc(Cl)c(Cl)c4)CC3)cc2o1
[1]
  IC50: 9.3 nM
[2]
  IC50: 451 nM
[3]
  IC50: 25.5 nM

Source: ChEMBL document CHEMBL3639048, “2,5-methano- and 2,5-ethano-tetrahydrobenzazepine derivatives and use thereof to block reuptake of norepinephrine, dopamine, and serotonin” (2015)
